The source of these data is publication PMC12813973, “Consequences of Peptide Macrocyclization Revealed by Virus-Inspired β‑Hairpin Mimetics” (ACS Chemical Biology, 2025).

Like-named read-outs stand apart in the source and are kept apart here. *1 amine or outer side, *2 acyl side, *3 side chain or, on linkers, in order; H or OH if unused. Where a SMILES comes first, the peptide text is derived from it. Bridges are numbered along the chain shown (N, C = ends). [ ]: non-standard residue; d: D form. oXylylene = c1ccc(C[*:2])c(C[*:1])c1; βAla = NCCC(=O)O

For series [1], the target named is Peptide 2 (head-to-tail monocyclic 018 11-30) none (wild-type side chains; added beta-Ala-beta-Ala linker). Briefly: isothermal titration calorimetry (ITC). Particulars: pH 8.0; 300 mM NaCl; 50 mM Tris pH 8.0 (TBST).
For series [2], the target named is Peptide 4 (bicyclic: head-to-tail plus o-xylyl C15/C26 cross-link) residue 15 to Cys (native residue not given); K26C; both S-alkylated by the o-xylyl bridge. Briefly: isothermal titration calorimetry (ITC). The following applies: pH 8.0; 300 mM NaCl; 50 mM Tris pH 8.0 (TBST).
Series [3] has as its target T1, STAT1 (Homo sapiens, UniProt P42224).
T1 construct: full-length STAT1 (Uniprot #P42224-1) was expressed in E. coli; His tag (pEXP-NHis vector) (N); made in house; host or cells: E. coli T7 Express
T1 sequence (P42224 1-750): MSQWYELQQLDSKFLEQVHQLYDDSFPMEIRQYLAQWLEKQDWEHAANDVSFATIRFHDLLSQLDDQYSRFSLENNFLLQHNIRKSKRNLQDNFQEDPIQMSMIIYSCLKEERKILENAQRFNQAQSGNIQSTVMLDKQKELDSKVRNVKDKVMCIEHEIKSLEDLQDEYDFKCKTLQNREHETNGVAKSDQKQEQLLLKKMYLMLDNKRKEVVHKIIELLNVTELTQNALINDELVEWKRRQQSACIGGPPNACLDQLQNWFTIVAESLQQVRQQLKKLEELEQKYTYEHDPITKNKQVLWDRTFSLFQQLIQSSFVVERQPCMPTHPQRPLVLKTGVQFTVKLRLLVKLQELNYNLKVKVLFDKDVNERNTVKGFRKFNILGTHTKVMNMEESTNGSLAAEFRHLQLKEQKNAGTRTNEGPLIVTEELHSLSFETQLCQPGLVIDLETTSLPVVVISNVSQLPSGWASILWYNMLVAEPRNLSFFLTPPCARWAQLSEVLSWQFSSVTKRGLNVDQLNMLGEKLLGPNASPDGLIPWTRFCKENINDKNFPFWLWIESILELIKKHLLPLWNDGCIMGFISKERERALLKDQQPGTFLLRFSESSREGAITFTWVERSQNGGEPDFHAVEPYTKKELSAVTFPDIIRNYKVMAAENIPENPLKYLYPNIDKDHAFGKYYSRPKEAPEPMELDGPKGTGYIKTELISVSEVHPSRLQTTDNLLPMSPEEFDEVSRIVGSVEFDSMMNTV
Briefly: Grating-coupled interferometry (GCI) waveRAPID kinetics, immobilised full-length STAT1. Particulars: for Kd: 20 mM HEPES pH 7.5, 300 mM NaCl, 0.01% Tween-20, 1:1 kinetic model, average of 2–4 technical replicates ± SD, SD; for kon at 0.5 µM / kd: analyte 0.5 µM; for kon at 0.5 µM: read-out: ka. The format is binding. An excerpt:
Understanding the molecular determinants of kinetic rate constants of binding (k a, k d) can aid the design of pharmacological probes with longer target engagement, which is beneficial for drug efficacy and decreased toxicity. , We characterized the binding kinetics of 018-derived macrocycles by using grating-coupled interferometry (GCI). We used waveRAPID, a regeneration-free kinetic binding assay that applies sequential analyte pulses of increasing duration onto a GCI biosensor surface with an immobilized target (Figures A, and S3,S4, Table S2).
(§1) Grating coupled interferometry (GCI)
(§2) GCI experiments were performed on a Creoptix WaveDELTA instrument (Malvern Panalytical). Full-length STAT1 or STAT3 were immobilised on a 4PCH chip (Malvern Panalytical #4PCH-03) to a density 2000-8000 pg/mm2 using EDC/NHS activation followed by amine coupling. Briefly, proteins (500 nM) were applied onto an activated chip in 10 mM MES pH 6.5, 20 mM NaCl, after which the chip surface was passivated with 1M ethanolamine, pH 8.0.
(§3) The kinetic measurements were perfor med using 20 mM HEPES pH 7.5, 300 mM NaCl, 0.01% Tween-20, 0.0005% DMSO as running buffer. Peptides were tested at 0.5 or 10 μM concentration using the waveRAPID kinetics experiment with the tight binder or intermediate binder mode, respectively.[4] Sensorgrams were fitted in the waveControl software (Malven Panalytical) using the 1:1 kinetic model. […]

A further series addresses T2, STAT3 (Homo sapiens, UniProt P40763).
T2 construct: STAT3: the gene encoding full-length STAT3 was codon optimised for expression in; MBP (pEXP-MBP vector) (cleaved yes); His tag (IMAC capture, removed with the fusion by TEV and reverse IMAC) (cleaved yes); made in house; host or cells: E. coli T7 Express
Briefly: biochemical. The format is binding. The following applies: for Kd: full-length STAT3 on 4PCH chip, average of technical replicates ± SD (Fig 3E), SD, read-out: STAT3 KD (GCI waveRAPID); for kon: read-out: ka; for KD: analyte 10 µM (1, 3, 5) or 0.5 µM (4, 6), n.b. – no binding observed. The procedure: In such PPIs, the bulk of the binding energy contribution typically stems from backbone interactions, whereas binding specificity is fine-tuned by side-chain contacts. […] We evaluated the binding kinetics of peptides to full-length STAT3 using GCI.
as §1, §2, §3
GCI sensorgrams depicting RAPID kinetics measurements and fitted kinetic models for peptide binding to full-length STAT3 immobilised on a polycarboxylate hydrogel chip (4PCH). Peptides were applied at 0.5 or 10 μM concentration using the medium or tight binders pulse sequence. The peptides that show negligible Rmax values at 10 μM analyte concentration were classified as non-binding.
(1 picture or pasted object on this page, not shown here)

Series [4] is described as follows: Solubility as required for ITC titration. The format is physicochemical. Particulars: ITC needs approximately 100-200 μM peptide in reaction buffer with 2% DMSO.
In series [5] the target is T1, STAT1. Briefly: Isothermal titration calorimetry (ITC) of peptide binding to STAT1. Particulars: average of 2–3 technical replicates, read-out: KD (ITC, summary Fig 2B). The procedure: To determine affinities and thermodynamic profiles of binding, we performed isothermal titration calorimetry (ITC) experiments for peptides 1, 2, 3, 4, 7, and 8 (Figures A,B and S1,S2, Table S1). […] The experiments were repeated in two different buffer systems, TBST (50 mM Tris pH 8.0, 300 mM NaCl, 0.01% Tween-20) and PBST ([…], 150 mM NaCl, 0.01% Tween-20), to account for possible buffer protonation enthalpy artifacts. […]
Isothermal titration calorimetry (ITC)
ITC experiments were performed using a PEAQ ITC instrument (Malvern Panalytical) in either TBST (50 mM Tris pH 8.0, 300 mM NaCl, 0.5 mM TCEP, 0.01% Tween -20) or PBST (10 mM sodium phosphate pH 7.4, 150 mM NaCl, 0.01% Tween -20) as reaction buffers. STAT1 protein was buffer -exchanged into reaction buffer supplemented with 2% DMSO on a NAP -5 deslating column (Cytiv a #17085301) and its concentration was adjusted to 10 or 20 μM.
Peptides were diluted in reaction buffer from DMSO stocks to a matching 2% DMSO concentration. Peptide concentrations were adjusted to approximately 100-200 μM. ITC experiments were performed with STAT1 in the cell and peptides in the syringe at 25°C, with 750 RPM stirring, DP = 4 μcal/sec. 18 injections of 2 μl were performed over a 50 min titration.
Thermogram integra tion and isotherm fitting were performed using the PEAQ ITC analysis software (Malvern Panalytical ). Isotherms were fitted using a 1:1 binding model. Due to challenges in determining peptide concentrations with high accuracy , protein concentrations and stoichiometry (N=1.0) were kept constant during isotherm fitting, whereas peptide concentrations were allowed to vary. Fixing a single reactant concentration during fitting is acceptable given the sufficiently high C -values and isotherm curvature observed in the […]
Offset subtraction was implemented to remove injection heats.

Series [6] addresses T1, STAT1. Briefly: Fluorescence polarization competition assay with fluorescein-labelled pIFNGR1 docking site peptide probe. Particulars: 10 nM fluorescein pIFNGR1 probe, STAT1 1.5 μM, 20 mM Tris pH 8.0, 300 mM NaCl, 0.1% Tween-20, 0.5 mM TCEP, 2.5% DMSO, room temperature; four parameter logistic fit; read-out: IC50 (FP competition, pIFNGR1 probe displacement). The format is binding.

Where [7] appears, read: replicate 1 (first listed run, Table S2).
Where [8] appears, read: replicate 2 (second listed run, Table S2).
[9] abbreviates: replicate 3 (third listed run, Table S2).
Setting [10] is: replicate 4 (fourth listed run, Table S2).

T2 sequence (P40763 whole entry, species assumed, the tested form may be a part): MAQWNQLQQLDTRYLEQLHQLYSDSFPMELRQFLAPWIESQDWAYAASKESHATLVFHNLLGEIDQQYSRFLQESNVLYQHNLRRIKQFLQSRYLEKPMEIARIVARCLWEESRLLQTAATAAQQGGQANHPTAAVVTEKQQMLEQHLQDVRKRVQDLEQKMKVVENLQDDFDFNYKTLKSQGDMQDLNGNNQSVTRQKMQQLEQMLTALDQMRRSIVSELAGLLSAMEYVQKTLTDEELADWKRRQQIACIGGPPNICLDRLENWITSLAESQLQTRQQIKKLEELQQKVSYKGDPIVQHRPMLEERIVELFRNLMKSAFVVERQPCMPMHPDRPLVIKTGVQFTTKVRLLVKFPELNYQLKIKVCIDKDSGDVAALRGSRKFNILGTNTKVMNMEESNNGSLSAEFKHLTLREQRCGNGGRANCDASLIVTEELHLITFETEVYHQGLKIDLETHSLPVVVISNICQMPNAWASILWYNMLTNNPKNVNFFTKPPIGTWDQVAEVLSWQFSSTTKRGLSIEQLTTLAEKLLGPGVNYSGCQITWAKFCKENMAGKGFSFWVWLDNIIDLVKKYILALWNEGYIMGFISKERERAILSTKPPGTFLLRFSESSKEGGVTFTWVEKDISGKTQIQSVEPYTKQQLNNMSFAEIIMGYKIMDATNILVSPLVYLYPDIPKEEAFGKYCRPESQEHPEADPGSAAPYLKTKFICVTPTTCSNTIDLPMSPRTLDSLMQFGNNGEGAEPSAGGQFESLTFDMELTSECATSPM

On to “STAT1 (signal transducer and activator of transcription 1), unphosphorylated not stated for the ITC sample”, for which the KD in series [1] is given as 330 ± 20 nM; in series [2], 24 ± 15 nM.

For the molecule `CC[C@H](C)[C@@H]1NC(=O)[C@H](Cc2ccccc2)NC(=O)[C@H](C(C)C)NC(=O)[C@@H](NC(=O)[C@H](Cc2c[nH]c3ccccc23)NC(=O)[C@H](CCSC)NC(C)=O)CSCc2ccccc2CSC[C@@H](C(=O)N[C@@H](Cc2ccc(O)cc2)C(=O)N[C@H](C(N)=O)[C@@H](C)O)NC(=O)[C@H](CCCCN)NC(=O)[C@H](CO)NC(=O)CNC(=O)[C@H](CCCCN)NC(=O)[C@H](CC(N)=O)NC(=O)[C@H](CO)NC(=O)CNC(=O)[C@H](CC(=O)O)NC(=O)[C@H](Cc2c[nH]cn2)NC(=O)CNC(=O)[C@H](Cc2c[nH]cn2)NC1=O` [Peptide 6], the Kd on STAT1 [3] was determined as 1.3 ± 1.1 nM; at STAT3 it was 196 ± 12 nM. The kon at 0.5 µM came out at 377000 M⁻¹ s⁻¹ at STAT1 [3] (setting [7]), 304000 M⁻¹ s⁻¹ at STAT1 [3] (setting [8]), 186000 M⁻¹ s⁻¹ on STAT1 [3] (setting [9]) and 384000 M⁻¹ s⁻¹ on STAT1 [3] (setting [10]). Further, on STAT3, the ka came to 280000 M⁻¹ s⁻¹. Also, at STAT3, the kon was 252000 M⁻¹ s⁻¹. Also, the “solubility (for ITC titration)” value in series [4] is given as “insufficient solubility”.

`CC[C@H](C)[C@@H]1NC(=O)[C@@H]2CSCc3ccccc3CSC[C@H](NC(=O)CNC(=O)[C@H](CCCCN)NC(=O)[C@H](CC(N)=O)NC(=O)[C@H](CO)NC(=O)CNC(=O)[C@H](CC(=O)O)NC(=O)[C@H](Cc3c[nH]cn3)NC(=O)CNC(=O)[C@H](Cc3c[nH]cn3)NC1=O)C(=O)N[C@@H](CCCCN)C(=O)N[C@@H]([C@@H](C)O)C(=O)N[C@@H](Cc1ccc(O)cc1)C(=O)N[C@@H]([C@@H](C)O)C(=O)NCCC(=O)NCCC(=O)N[C@@H](CCSC)C(=O)N[C@@H](Cc1c[nH]c3ccccc13)C(=O)N[C@@H](CO)C(=O)N[C@@H](C(C)C)C(=O)N2` [Peptide 4] (cyclo(CIHGHDGSNKGCKTYT[βAla][βAla]MWSV); linker 1-12 via oXylylene): the Kd at STAT1 [5] (PBST pH 7.4 (NaPi, 150 mM NaCl, 0.01% Tween-20)) is 14 nM; at STAT1 [5] (TBST pH 8.0), 24 nM; on STAT3, 248 ± 10.6 nM. Further, the kon at 0.5 µM at STAT1 [3] (setting [7]) came out at 658000 M⁻¹ s⁻¹; on STAT1 [3] (setting [8]), 594000 M⁻¹ s⁻¹; on STAT1 [3] (setting [9]) it was 277000 M⁻¹ s⁻¹; at STAT1 [3] (setting [10]) it was 865000 M⁻¹ s⁻¹. The molecule also yielded a ka on STAT3 of 239000 M⁻¹ s⁻¹. At STAT3, the kon is 257000 M⁻¹ s⁻¹. For the same molecule, the IC50 on STAT1 [6] is 1100 nM.

Molecule `CC[C@H](C)[C@H](NC(=O)[C@H](Cc1ccccc1)NC(=O)[C@@H](NC(=O)[C@H](CS)NC(=O)[C@H](Cc1c[nH]c2ccccc12)NC(=O)[C@H](CCSC)NC(C)=O)C(C)C)C(=O)N[C@@H](Cc1c[nH]cn1)C(=O)NCC(=O)N[C@@H](Cc1c[nH]cn1)C(=O)N[C@@H](CC(=O)O)C(=O)NCC(=O)N[C@@H](CO)C(=O)N[C@@H](CC(N)=O)C(=O)N[C@@H](CCCCN)C(=O)NCC(=O)N[C@@H](CO)C(=O)N[C@@H](CCCCN)C(=O)N[C@@H](CS)C(=O)N[C@@H](Cc1ccc(O)cc1)C(=O)N[C@H](C(N)=O)[C@@H](C)O` [Peptide 5] returned a Kd at STAT1 [3] of 31.9 ± 4.3 nM. For the same molecule, the kd was 0.0123 s⁻¹ on STAT1 [3] (setting [7]) and 0.0132 s⁻¹ on STAT1 [3] (setting [8]). Moreover, the kon at 0.5 µM on STAT1 [3] (setting [7]) is 351000 M⁻¹ s⁻¹; on STAT1 [3] (setting [8]), 457000 M⁻¹ s⁻¹. In addition, the KD entry at STAT3 (setting [7]) and on STAT3 (setting [8]) was “n.b” in each case. Besides, the “STAT3 binding (GCI), in words” value on STAT3 (full-length STAT3, negligible Rmax at 10 μM classified as non-binding) is “not detected”. The “solubility (for ITC titration)” value in series [4] was “insufficient solubility”.
